Experimental data reported in US12667584B2, “Adenosine analog and its use in regulating the circadian clock” (NATIONAL INSTITUTE OF BIOLOGICAL SCIENCES, BEIJING, priority 2017, dated 2026).

Legend:
Per2:luc U2OS cells = test: Real-time monitoring of circadian oscillation in lumicycle, Per2:luc U2OS cells; format: cell-based, human
Description: Cell culture, drug treatment and Real-Time Monitoring of Circadian Oscillations: Per2-Luc reporter U2OS cells (D15) and Bmal1-Luc reporter U2OS cells (C26) cells were kept in DMEM medium (Gibco), supplemented with 10% FBS (Gibco) and 1% penicillin streptomycin mixture (Gibco). For Circadian Oscillation monitored with lumicycle (Actimetrics), cells were seeded at the density of 10^6 per 3.5 cm dish (Z688851-30EA). The medium was changed into XM medium (PH7.2, 10 mM HEPES, 350 mg/I bicarbonate, 1×B27, 100 IU/ml penicillin, 100 μg/ml streptomycin, 10 μg/ml gentamycin, and 100 μM d-Luciferin) 2 days after cell seeding. 3.5 cm dish was then sealed with high-vacuum grease (Dow Corning) and microscope cover glass, and transferred into lumicycle which was placed in an incubator (37° C.). For Drug treatment, 3.5 cm dish was taken out from lumicycle quickly at indicated time. After chemical was added into the medium, the dish was sealed again and put back into lumicycle. For Circadian Oscillation monitored with Tecan (Perkinelmer), cells were seeded at the density of […] per well for 384-well plate (CLS3610-48EA). 2 days later, the medium was changed into premixed XM medium with different chemicals with or without pentostatin (5 μg/ml). The plate was then sealing with sealing film (Sangon Biotech) and put into Tecan. Data from cells were collected in the Tecan luminometer at 37° C. for 5˜7 days.
The inventors conducted a chemical screen using the human osteosarcoma U2OS cell line so as to discover small molecules that modify the phase of the intracellular clock in mammals. In the primary screen, the inventors used two reporter lines of U2OS harboring a luciferase gene under control of either Per2 or Bmal1 promoter (named Per2-dLuc or Bmal1-dLuc cells), and set the threshold for at least 6 h phase-changes with no apparent amplitude-reduction in both cell lines. […] An institutional pilot chemical library consisting of approximately 10,000 small molecules was applied in this study. […] The inventors set to allow a free-run of the clock before administration of the compound over the course in order to eliminate the possibility that this phase-changing phenomenon was due to a combinative phenotype of medium-change plus the compound effect.
Circadian clock is a transcriptional based feedback loop, however different clock genes contain different cis-element and may show different response to the same stimulation. […] Since the close similar structure with adenosine and potential function of inhibiting transcription by preventing mRNA elongation, we tested whether adenosine and other deoxynucleoside could shift circadian phase. […] Therefore we further tested whether cordycepin utilize adenosine transporter to enter cell or utilize adenosine deaminase to degrade.
One prominent character of zeitgeiber is phase dependent function. Therefore, we further tested whether cordycepin also has the character.

Ruvbl2 = Ruvbl2 (Homo sapiens, UniProt Q9Y230); test: SPR binding to RUVBL2 protein (Biacore T200); details: purified RUVBL2
Chain of Ruvbl2 (Q9Y230 whole entry): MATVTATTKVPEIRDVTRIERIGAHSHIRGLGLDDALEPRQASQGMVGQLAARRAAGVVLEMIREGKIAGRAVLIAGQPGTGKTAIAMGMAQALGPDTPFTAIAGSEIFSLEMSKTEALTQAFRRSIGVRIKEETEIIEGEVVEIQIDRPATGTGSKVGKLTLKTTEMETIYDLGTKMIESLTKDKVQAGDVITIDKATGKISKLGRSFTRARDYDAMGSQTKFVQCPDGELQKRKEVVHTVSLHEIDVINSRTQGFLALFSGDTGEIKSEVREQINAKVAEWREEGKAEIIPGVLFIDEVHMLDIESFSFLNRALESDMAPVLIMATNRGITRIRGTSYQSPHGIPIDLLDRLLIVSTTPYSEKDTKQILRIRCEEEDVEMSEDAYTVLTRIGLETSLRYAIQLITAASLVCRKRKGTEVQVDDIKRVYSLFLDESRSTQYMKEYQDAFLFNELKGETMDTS
Description: Biotinylated Compounds Pull-down, SPR analysis and Immunoprecipitation: The interaction between biotinylated compounds and their target proteins were proceeded as follow. Every 10^8 unsynchronized U2OS cells were collected, homogenized into 2 ml lysis buffer (25 mM MOPS pH7.2, 15 mM EGTA, 15 mM MgCl2, 1 mM DTT, 60 mM β-glycerophosphate, 1 mM Na3VO4, 1 mM NaF, 1 mM phenyl phosphate, Complete Protease Inhibitor Cocktail), and sonicated 6 times for 30 s at 4° C. with a Diagenode bioruptor. After sonication, NP-40 (final 0.5%) was added, incubated 15 min on ice, centrifuged at full speed for 20 min at 4° C. The resultant supernatant was firstly incubated with Pentostatin (final concentration at 5 μg/ml) for 2 h at 4° C. with rotation, and then split into 4 groups. 200 pmol cordycepin, 200 pmol DRB, and DMSO (2 groups, final 0.1%) was added respectively and further incubated for 1 h. […] The eluted protein was analyzed with western blot. The binding affinity of cordycepin against the RUVBL2 protein was measured via SPR technology using a Biacore T200 instrument (GE Healthcare) at room temperature. […] The binding kinetics and binding affinity of cordycepin against the RUVBL2 protein were determined with BIA evaluation software (GE healthcare). […] Immunoprecipitated protein complex was then washed 3 times with IP lysis buffer, boiled and analyzed with western blot. […]

Question: Which phase shift (Per2:luc U2OS cells; 100 μM applied at CT10) does the source give for Nc1ncnc2c1ncn2[C@@H]1O[C@H](CO)C[C@H]1O [Cordycepin, 3′-deoxy-adenosine] here?
Answer: The phase shift was 12 h.

Question: What about the phase shift (Per2:luc U2OS cells; 100 μM applied at CT 20) of the same compound?
Answer: The phase shift was ~0 h.

Question: What about the Per2-dLuc phase shift (Per2:luc U2OS cells; applied at Per2 peak, 100 μM) of the same compound?
Answer: The Per2-dLuc phase shift was 12 h.

Question: What about the Per2-dLuc phase shift (Per2:luc U2OS cells; applied at Per2 trough) of the same compound?
Answer: The Per2-dLuc phase shift was 0 h.

Question: What about the “amplitude of Per2-dLuc” value (Per2:luc U2OS cells; applied at Per2 trough) of the same compound?
Answer: Its value is “increase the amplitude”.

Question: What about the Kd (Ruvbl2) of the same compound?
Answer: Its Kd is ~500 nM.
